Data: patent publication US12275688B2, “Crystalline solids of MEK inhibitor N-((R)-2,3-dihydroxypropoxy)-3,4-difluoro-2-(2-fluoro-4-iodo-phenylamino)-benzamide and uses thereof” (SpringWorks Therapeutics, Inc., priority 2021, dated 2025)
In brackets after ≈: the same amount, converted by molar mass. Entries after “also recorded” stand apart in the source; their conditions may differ. Like-named read-outs stand apart in the source and are kept apart here.

Columns and labels:
Assay type in all cases: physicochemical
[1] = Desolvation/dehydration by heating in TGA pan to 100° C.; conditions: 15° C./min from 25 to 100° C., 5 min. hold at 100° C., air-cooled to RT
Method: Desolvation/dehydration studies of certain forms were conducted in a TGA pan with loose lid at a heating rate of 15° C./min from 25 to 100° C. with a 5 min. hold at 100° C. Samples were air-cooled to RT on the TGA and analyzed by PXRD if crystalline. […] PXRD indicated Form I.

[2] = Drying of certain forms via vacuum oven at 45° C.; conditions: overnight in vacuum oven at 45° C.; PXRD at about 70% ambient lab humidity
Method: Drying studies for certain forms were conducted overnight in a vacuum oven at 45° C. After drying, samples were equilibrated to RT for 10 min. and analyzed by PXRD at about 70% ambient lab humidity.

[3] = Solid-state stability of crystal forms at ambient conditions
Excerpt: The following sections describe and summarize the physical properties of each of the crystal forms observed for mirdametinib.

[4] = Physical stability of amorphous mirdametinib on storage (PXRD, PLM)
Method: Solutions of mirdametinib (100 mg/mL) were prepared in methanol and THF, and each solution was divided into three equal parts to be used for 1) open at RT stability evaluation, 2) closed at RT stability evaluation, and 3) closed at −20° C. stability evaluation.
PXRD analyses of all six samples (three from both methanol and THF) following rapid evaporation indicated an amorphous state. Other analyses (e.g. PLM, TGA-IR, DSC) were performed on one sample from each solvent. Following initial analyses, one sample from each solvent was stored at RT in an open vial, at RT in a capped vial, and at −20° C. in a capped vial.

[5] = Approximate kinetic solubility (visual, solvent aliquot addition); conditions: thermodynamic from solid; for solubility: read-out: Solubility (mg/mL)at RT (23° C.); for solubility at 1 h: heated to 40° C. for 1 hour, read-out: Solubility (mg/mL) at 40° C.
Method: Solubility of mirdametinib prepared by Example 3 was assessed in 30 solvents. The solubility was visually estimated at room temperature (RT; ˜23° C.) by dosing small aliquots of solvent into a fixed amount of solid (˜10 mg) until the dissolution point or a maximum volume (1.8 mL) was reached. Samples that contained undissolved solids at RT were heated to 40° C. for 1 hour and the dissolution was assessed visually. The solubility data are shown below in Table 1.

What does the source list for O=C(NOC[C@H](O)CO)c1ccc(F)c(F)c1Nc1ccc(I)cc1F [Form VI, N—((R)-2,3-dihydroxypropoxy)-3,4-difluoro-2-(2-fluoro-4-iodo-phenylamino)-benzamide]?
Result of desolvation/dehydration by heating [1]: melted and solidified in molten, amorphous state, possible decomposition; Form after vacuum oven drying (PXRD) [2]: Partially converted to Form A; Stable in solid-state at ambient conditions for ([3]; solid-state, ambient conditions): ≥ 2 weeks

Which “Conversion noted under Nature of Solvate (Table 2)” value [3] does the source give for O=C(NOC[C@H](O)CO)c1ccc(F)c(F)c1Nc1ccc(I)cc1F [Form XXI, N—((R)-2,3-dihydroxypropoxy)-3,4-difluoro-2-(2-fluoro-4-iodo-phenylamino)-benzamide] here?
Its value is “(converts to Form IV)”.

Which “Results (solid form after 1 day at ambient)” value [4] does the source give for O=C(NOC[C@H](O)CO)c1ccc(F)c(F)c1Nc1ccc(I)cc1F [Form A-1] here?
Its value is “Amorphous”.

For O=C(NOC[C@H](O)CO)c1ccc(F)c(F)c1Nc1ccc(I)cc1F [Form XX, N—((R)-2,3-dihydroxypropoxy)-3,4-difluoro-2-(2-fluoro-4-iodo-phenylamino)-benzamide], which “Time to convert to Form IV at ambient conditions” value ([3]; ambient conditions) is on record?
Its value is ≤ 10 days.

With O=C(NOC[C@H](O)CO)c1ccc(F)c(F)c1Nc1ccc(I)cc1F [Form XIV, N—((R)-2,3-dihydroxypropoxy)-3,4-difluoro-2-(2-fluoro-4-iodo-phenylamino)-benzamide] as the compound, how does the “Conversion at ambient conditions (in words)” value ([3]; ambient conditions) read?
Its value is “convert to Form IV within four days”.

Which “Results (solid form after 1 day at ambient)” value [4] does the source give for O=C(NOC[C@H](O)CO)c1ccc(F)c(F)c1Nc1ccc(I)cc1F [A- 2] here?
The value was “Form IV”.

With O=C(NOC[C@H](O)CO)c1ccc(F)c(F)c1Nc1ccc(I)cc1F [Form A-1b] as the compound, how does the “Solid state by PXRD and PLM after one day” value (from here on “Solid state by PXRD and PLM”) ([4]; capped vial at RT) read?
Its value is “no crystallization”.

Which results are given for O=C(NOC[C@H](O)CO)c1ccc(F)c(F)c1Nc1ccc(I)cc1F [Form XIX, N—((R)-2,3-dihydroxypropoxy)-3,4-difluoro-2-(2-fluoro-4-iodo-phenylamino)-benzamide]?
Result of desolvation/dehydration by heating [1]: solid particles (not melted). PXRD indicated Form I; Form after vacuum oven drying (PXRD) [2]: Remained unchanged; Stable in a capped vial for ([3]; capped vial): ≥ 2 weeks

Which “Solid state by PXRD and PLM” value ([4]; open vial at RT) does the source give for O=C(NOC[C@H](O)CO)c1ccc(F)c(F)c1Nc1ccc(I)cc1F [Form A-1a] here?
Its value is “no crystallization”.

Which “Conversion at ambient conditions (in words)” value ([3]; ambient conditions) does the source give for O=C(NOC[C@H](O)CO)c1ccc(F)c(F)c1Nc1ccc(I)cc1F [Form IX, N—((R)-2,3-dihydroxypropoxy)-3,4-difluoro-2-(2-fluoro-4-iodo-phenylamino)-benzamide] here?
The value was “significant conversion toward Form IV after 20 hours; also recorded: slowly convert to Form IV”.

For O=C(NOC[C@H](O)CO)c1ccc(F)c(F)c1Nc1ccc(I)cc1F [Form A-2a], which “Solid state by PXRD and PLM” value ([4]; open vial at RT) is on record?
Its value is “crystallization to Form IV”.

With O=C(NOC[C@H](O)CO)c1ccc(F)c(F)c1Nc1ccc(I)cc1F [Form XIII, N—((R)-2,3-dihydroxypropoxy)-3,4-difluoro-2-(2-fluoro-4-iodo-phenylamino)-benzamide] as the compound, how does the “Form after vacuum oven drying (PXRD)” value [2] read?
Its value is “Form XIII/Form IV mixture converted to Form IV”.

Which solubility ([5]; 1-propanol, 23 °C, organic solvent or mixture) does the source give for O=C(NOC[C@H](O)CO)c1ccc(F)c(F)c1Nc1ccc(I)cc1F [mirdametinib, N—((R)-2,3-dihydroxypropoxy)-3,4-difluoro-2-(2-fluoro-4-iodo-phenylamino)-benzamide] here?
Its solubility is 101 to 202 mg/mL (≈ 209 to 419 mM).

And the solubility ([5]; 2-methyl-2-butanol, 23 °C, organic solvent or mixture)?
The solubility was 97 to 194 mg/mL (≈ 201 to 402 mM).

And the solubility ([5]; 2-propanol (IPA), 23 °C, organic solvent or mixture)?
The solubility was 98 to 196 mg/mL (≈ 203 to 406 mM).

And the solubility ([5]; 23 °C, organic solvent or mixture, 2-Propanol: water (9:1 v/v))?
Its solubility is > 400 mg/mL.

What about the solubility ([5]; DMF (dimethylformamide), 23 °C, organic solvent or mixture) of the same compound?
Its solubility is > 408 mg/mL.

What about the solubility ([5]; Dioxane, 23 °C, organic solvent or mixture) of the same compound?
The solubility was > 408 mg/mL.

And the solubility ([5]; Ethanol/Water (9:1 v/v), 23 °C, organic solvent or mixture)?
Its solubility is > 424 mg/mL.

And the solubility ([5]; MIBK (4-methyl-2-pentanone), 23 °C, organic solvent or mixture)?
The solubility was 48 to 95 mg/mL (≈ 99.5 to 197 mM).

What about the solubility ([5]; MTBE (methyl-t-butylether), 23 °C, organic solvent or mixture) of the same compound?
Its solubility is < 6 mg/mL.

What about the solubility ([5]; MeCN/Water (7:3 v/v), 23 °C, organic solvent or mixture) of the same compound?
Its solubility is > 408 mg/mL.

What about the solubility ([5]; MeCN/water (8:2 v/v), 23 °C, organic solvent or mixture) of the same compound?
The solubility was > 412 mg/mL.

And the solubility ([5]; acetic acid (HOAc), 23 °C, organic solvent or mixture)?
The solubility was > 388 mg/mL.

What about the solubility ([5]; acetone, 23 °C, organic solvent or mixture) of the same compound?
The solubility was > 400 mg/mL.

What about the solubility ([5]; acetonitrile (MeCN), 23 °C, organic solvent or mixture) of the same compound?
Its solubility is 19 to 49 mg/mL (≈ 39.4 to 102 mM).

What about the solubility ([5]; chloroform, 23 °C, organic solvent or mixture) of the same compound?
The solubility was < 6 mg/mL.

And the solubility ([5]; cyclohexane, 23 °C, organic solvent or mixture)?
Its solubility is < 6 mg/mL.

What about the solubility ([5]; dichloromethane (DCM), 23 °C, organic solvent or mixture) of the same compound?
The solubility was < 6 mg/mL.

What about the solubility ([5]; dimethyl sulfoxide (DMSO), 23 °C, organic solvent or mixture) of the same compound?
The solubility was > 388 mg/mL.

And the solubility ([5]; dimethylcarbonate (DMC), 23 °C, organic solvent or mixture)?
Its solubility is 10 to 19 mg/mL (≈ 20.7 to 39.4 mM).

And the solubility ([5]; ethanol, 23 °C, organic solvent or mixture)?
The solubility was 208 to 416 mg/mL (≈ 431 to 863 mM).

And the solubility ([5]; ethanol/toluene (9:1), 23 °C, organic solvent or mixture)?
Its solubility is 210 to 420 mg/mL (≈ 436 to 871 mM).

What about the solubility ([5]; ethyl acetate (EtOAc), 23 °C, organic solvent or mixture) of the same compound?
Its solubility is 48 to 95 mg/mL (≈ 99.5 to 197 mM).

And the solubility ([5]; isopropyl ether (IPE), 23 °C, organic solvent or mixture)?
The solubility was < 6 mg/mL.

And the solubility ([5]; methanol (MeOH), 23 °C, organic solvent or mixture)?
The solubility was > 380 mg/mL.

And the solubility ([5]; nitromethane, 23 °C, organic solvent or mixture)?
Its solubility is 10 to 20 mg/mL (≈ 20.7 to 41.5 mM).

And the solubility at 1 h ([5]; organic solvent or mixture, Chloroform)?
The solubility at 1 h was < 6 mg/mL.

What about the solubility at 1 h ([5]; organic solvent or mixture, Cyclohexane) of the same compound?
Its solubility at 1 h is < 6 mg/mL.

What about the solubility at 1 h ([5]; organic solvent or mixture, Dichloromethane (DCM)) of the same compound?
The solubility at 1 h was > 6 mg/mL.

And the solubility at 1 h ([5]; organic solvent or mixture, Isopropyl ether (IPE))?
The solubility at 1 h was < 6 mg/mL.

And the solubility at 1 h ([5]; organic solvent or mixture, MTBE (methyl-t-butylether))?
The solubility at 1 h was > 6 mg/mL.

And the solubility ([5]; organic solvent or mixture, Tert-butanol (t-BuOH), solubility determined at 30° C. (footnote))?
Its solubility is 6 to 10 mg/mL (≈ 12.4 to 20.7 mM).

What about the solubility at 1 h ([5]; organic solvent or mixture, Toluene) of the same compound?
The solubility at 1 h was < 6 mg/mL.

What about the solubility ([5]; tetrahydrofuran (THF), 23 °C, organic solvent or mixture) of the same compound?
Its solubility is > 396 mg/mL.

What about the solubility at 1 h ([5]; Water) of the same compound?
Its solubility at 1 h is < 6 mg/mL.

And the solubility ([5]; toluene, 23 °C, organic solvent or mixture)?
Its solubility is < 6 mg/mL.

And the solubility ([5]; trifluoroethanol (TFE), 23 °C, organic solvent or mixture)?
Its solubility is 7 to 12 mg/mL (≈ 14.5 to 24.9 mM).

And the solubility ([5]; water, 23 °C, water)?
Its solubility is < 6 mg/mL.

Which “Stable at ambient conditions for” value ([3]; ambient conditions) does the source give for O=C(NOC[C@H](O)CO)c1ccc(F)c(F)c1Nc1ccc(I)cc1F [Form VIII, N—((R)-2,3-dihydroxypropoxy)-3,4-difluoro-2-(2-fluoro-4-iodo-phenylamino)-benzamide] here?
The value was ≥ 2 days.

For O=C(NOC[C@H](O)CO)c1ccc(F)c(F)c1Nc1ccc(I)cc1F [Amorphous mirdametinib, N—((R)-2,3-dihydroxypropoxy)-3,4-difluoro-2-(2-fluoro-4-iodo-phenylamino)-benzamide], which “Physically stable for” value ([4]; open and closed vials at RT) is on record?
Its value is “at least 24 hours”.
